The record followed here is patent US9403813B2, “Azetidine amide derivatives as orexin receptor antagonists” (ACTELION PHARMACEUTICALS LTD, priority 2013, dated 2016).

The target in one test is human orexin-1 receptor (Homo sapiens (Human), UniProt O43613). As to the kind of experiment: Intracellular calcium measurements (FLIPR), antagonism of orexin-A response. Type of test: cell-based. The following applies: CHO cells expressing human orexin-1 receptor, 3 nM orexin-A, geometric mean if determined several times, read-out: IC50 OX1. The method, then: (§1) Antagonistic activities on both orexin receptors have been measured for each example compound using the following procedure:
(§2) In Vitro Assay: Intracellular Calcium Measurements:
(§3) Chinese hamster ovary (CHO) cells expressing the human orexin-1 receptor and the human orexin-2 receptor, respectively, are grown in culture medium (Ham F-12 with L-Glutamine) containing 300 μg/mL G418, 100 U/mL penicillin, 100 μg/mL streptomycin and 10% heat inactivated fetal calf serum (FCS). The cells are seeded at 20,000 cells/well into 384-well black clear bottom sterile plates (Greiner). The seeded plates are incubated overnight at 37° C. in 5% CO2. Human orexin-A as an agonist is prepared as 1 mM stock solution in MeOH:water (1:1), diluted in HBSS containing 0.1% bovine serum albumin (BSA), NaHCO3: 0.375 g/L and 20 mM HEPES for use in the assay at a final concentration of 3 nM.
(§4) Antagonists are prepared as 10 mM stock solution in DMSO, then diluted in 384-well plates using DMSO followed by a transfer of the dilutions into in HBSS containing 0.1% bovine serum albumin (BSA), NaHCO3: 0.375 g/L and 20 mM HEPES. On the day of the assay, 50 μL of staining buffer (HBSS containing 1% FCS, 20 mM HEPES, NaHCO3: 0.375 g/L, 5 mM probenecid (Sigma) and 3 μM of the fluorescent calcium indicator fluo-4 AM (1 mM stock solution in DMSO, containing 10% pluronic) is added to each well. The 384-well cell-plates are incubated for 50 min at 37° C. in 5% CO2 followed by equilibration at rt for 30 min before measurement.
(§5) Within the Fluorescent Imaging Plate Reader (FLIPR Tetra, Molecular Devices), antagonists are added to the plate in a volume of 10 μL/well, incubated for 120 min and finally 10 μL/well of agonist is added. Fluorescence is measured for each well at 1 second intervals, and the height of each fluorescence peak is compared to the height of the fluorescence peak induced by 3 nM orexin-A with vehicle in place of antagonist. The IC50 value (the concentration of compound needed to inhibit 50% of the agonistic response) is determined and may be normalized using the obtained IC50 value of an on-plate reference compound. Optimized conditions were achieved by adjustment of pipetting speed and cell splitting regime. The calculated IC50 values may fluctuate depending on the daily cellular assay performance. Fluctuations of this kind are known to those skilled in the art. In the case where IC50 values have been determined several times for the same compound, the geometric mean has been given.

A further test concerns the target human orexin-2 receptor (Homo sapiens (Human), UniProt O43614). Described as above. The test is classed as cell-based. The settings on record: CHO cells expressing human orexin-2 receptor, 3 nM orexin-A, geometric mean if determined several times, read-out: IC50 OX2. The method, then:
as §1, §2, §3, §4, §5

Each structure is given as a SMILES string.

Chain of human orexin-1 receptor (O43613 whole entry): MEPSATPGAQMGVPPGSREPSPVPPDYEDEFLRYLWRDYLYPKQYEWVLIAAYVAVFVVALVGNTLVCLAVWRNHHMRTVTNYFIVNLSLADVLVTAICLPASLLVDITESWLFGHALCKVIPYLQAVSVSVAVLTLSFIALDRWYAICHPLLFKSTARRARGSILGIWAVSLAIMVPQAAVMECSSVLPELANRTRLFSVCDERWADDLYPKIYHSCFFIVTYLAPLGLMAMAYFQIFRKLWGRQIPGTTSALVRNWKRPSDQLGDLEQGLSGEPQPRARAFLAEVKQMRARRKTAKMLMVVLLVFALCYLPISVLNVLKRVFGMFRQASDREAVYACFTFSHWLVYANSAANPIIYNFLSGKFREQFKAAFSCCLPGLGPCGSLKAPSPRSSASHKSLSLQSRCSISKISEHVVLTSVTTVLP
Chain of human orexin-2 receptor (O43614 whole entry): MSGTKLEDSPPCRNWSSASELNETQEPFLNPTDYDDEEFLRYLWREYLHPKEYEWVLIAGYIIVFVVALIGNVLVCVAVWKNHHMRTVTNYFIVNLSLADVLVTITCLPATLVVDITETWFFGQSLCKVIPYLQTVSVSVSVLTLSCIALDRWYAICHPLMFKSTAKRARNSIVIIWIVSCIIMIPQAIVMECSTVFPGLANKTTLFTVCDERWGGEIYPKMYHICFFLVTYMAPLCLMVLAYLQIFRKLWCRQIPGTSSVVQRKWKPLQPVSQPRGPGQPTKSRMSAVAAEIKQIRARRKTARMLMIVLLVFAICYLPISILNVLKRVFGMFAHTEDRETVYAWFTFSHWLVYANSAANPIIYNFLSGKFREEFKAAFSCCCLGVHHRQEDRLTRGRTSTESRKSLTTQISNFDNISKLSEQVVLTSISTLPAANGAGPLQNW

One may read the IC50 as the midpoint of a concentration-inhibition curve. In the case of `O=C(c1ncsc1-c1cccc(Cl)c1)N1CC[C@H]1c1nc(-c2ccccc2OC(F)(F)F)no1` [Example 43, [5-(3-Chloro-phenyl)-thiazol-4-yl]-{(S)-2-[3-(2-trifluoromethoxy-phenyl)-[1,2,4]oxadiazol-5-yl]-azetidin-1-yl}-methanone], the values for the IC50 on human orexin-1 receptor and on human orexin-2 receptor were 288 nM and 357 nM, respectively.
As to `Cc1ccc(-c2sc(C)nc2C(=O)N2CC[C@H]2c2nc(-c3ccccc3OC(F)(F)F)no2)cc1` [Example 44, (2-Methyl-5-p-tolyl-thiazol-4-yl)-{(S)-2-[3-(2-trifluoromethoxy-phenyl)-[1,2,4]oxadiazol-5-yl]-azetidin-1-yl}-methanone], the results for the IC50 on human orexin-1 receptor and at human orexin-2 receptor were 282 nM and 73 nM, respectively.
In the case of `Cc1nc(C(=O)N2CC[C@H]2c2nc(-c3ccccc3OC(F)(F)F)no2)c(-c2ccccc2C)s1` [Example 45, (2-Methyl-5-o-tolyl-thiazol-4-yl)-{(S)-2-[3-(2-trifluoromethoxy-phenyl)-[1,2,4]oxadiazol-5-yl]-azetidin-1-yl}-methanone], the IC50 at human orexin-1 receptor was 745 nM; on human orexin-2 receptor it was 416 nM.
In the case of `Cc1cccc(-n2nccn2)c1C(=O)N1CC[C@H]1c1nc(-c2ccccc2OC(F)(F)F)no1` [Example 46, (2-Methyl-6-[1,2,3]triazol-2-yl-phenyl)-{(S)-2-[3-(2-trifluoromethoxy-phenyl)-[1,2,4]oxadiazol-5-yl]-azetidin-1-yl}-methanone], the IC50 at human orexin-1 receptor was found to be 1020 nM; at human orexin-2 receptor, 115 nM.
On to `O=C(c1cc(OC(F)(F)F)ccc1-n1nccn1)N1CC[C@H]1c1nc(-c2ccccc2OC(F)(F)F)no1` [Example 47, (2-[1,2,3]Triazol-2-yl-5-trifluoromethoxy-phenyl)-{(S)-2-[3-(2-trifluoromethoxy-phenyl)-[1,2,4]oxadiazol-5-yl]-azetidin-1-yl}-methanone], for which the IC50 at human orexin-1 receptor amounted to 618 nM; on human orexin-2 receptor, 727 nM.
For `O=C(c1cc(C(F)(F)F)ccc1-n1nccn1)N1CC[C@H]1c1nc(-c2ccccc2OC(F)(F)F)no1` [Example 48, (2-[1,2,3]Triazol-2-yl-5-trifluoromethyl-phenyl)-{(S)-2-[3-(2-trifluoromethoxy-phenyl)-[1,2,4]oxadiazol-5-yl]-azetidin-1-yl}-methanone] the same measures were 960 nM and 239 nM.
In the case of `Cc1cccc(-c2ocnc2C(=O)N2CC[C@H]2c2nc(-c3ccccc3OC(F)(F)F)no2)c1` [Example 49, (5-m-Tolyl-oxazol-4-yl)-{(S)-2-[3-(2-trifluoromethoxy-phenyl)-[1,2,4]oxadiazol-5-yl]-azetidin-1-yl}-methanone], the IC50 at human orexin-1 receptor was 223 nM; at human orexin-2 receptor, 305 nM.
Taken in the same sequence, the figures for `O=C(c1ccccc1-n1nccn1)N1CC[C@H]1c1nc(-c2ccccc2OC(F)(F)F)no1` [Example 50, (2-[1,2,3]Triazol-2-yl-phenyl)-{(S)-2-[3-(2-trifluoromethoxy-phenyl)-[1,2,4]oxadiazol-5-yl]-azetidin-1-yl}-methanone] were 583 nM and 91 nM.
For the compound `Cc1cccc(-c2scnc2C(=O)N2CC[C@H]2c2nc(-c3ccccc3OC(F)(F)F)no2)c1` [Example 51, (5-m-Tolyl-thiazol-4-yl)-{(S)-2-[3-(2-trifluoromethoxy-phenyl)-[1,2,4]oxadiazol-5-yl]-azetidin-1-yl}-methanone], the IC50 at human orexin-1 receptor was found to be 276 nM; at human orexin-2 receptor, 342 nM.
Taken in the same sequence, the figures for `Cc1cccc(-c2oc(C)nc2C(=O)N2CC[C@H]2c2nc(-c3ccccc3OC(F)(F)F)no2)c1` [Example 52, (2-Methyl-5-m-tolyl-oxazol-4-yl)-{(S)-2-[3-(2-trifluoromethoxy-phenyl)-[1,2,4]oxadiazol-5-yl]-azetidin-1-yl}-methanone] were 357 nM and 309 nM.
Taken in the same sequence, the figures for `Cc1onc(-c2ccccc2Cl)c1C(=O)N1CC[C@H]1c1nc(-c2ccccc2OC(F)(F)F)no1` [Example 53, [3-(2-Chloro-phenyl)-5-methyl-isoxazol-4-yl]-{(S)-2-[3-(2-trifluoromethoxy-phenyl)-[1,2,4]oxadiazol-5-yl]-azetidin-1-yl}-methanone] were 1230 nM and 1190 nM.
Consider `O=C(c1ccccc1-c1ccccc1)N1CC[C@H]1c1nc(-c2ccccc2OC(F)(F)F)no1` [Example 54, Biphenyl-2-yl-{(S)-2-[3-(2-trifluoromethoxy-phenyl)-[1,2,4]oxadiazol-5-yl]-azetidin-1-yl}-methanone], for which the IC50 on human orexin-1 receptor amounted to 129 nM; on human orexin-2 receptor it was 10 nM.
On to `Cc1nc(C(=O)N2CC[C@H]2c2nc(-c3cccc(Cl)c3C)no2)c(-c2ccccc2F)s1` [Example 55, {(S)-2-[3-(3-Chloro-2-methyl-phenyl)-[1,2,4]oxadiazol-5-yl]-azetidin-1-yl}-[5-(2-fluoro-phenyl)-2-methyl-thiazol-4-yl]-methanone], for which the IC50 at human orexin-1 receptor came to 1200 nM; at human orexin-2 receptor it was 218 nM.
Taken in the same sequence, the figures for `Cc1cccc(-c2sc(C)nc2C(=O)N2CC[C@H]2c2nc(-c3cccc(Cl)c3C)no2)c1` [Example 56, {(S)-2-[3-(3-Chloro-2-methyl-phenyl)-[1,2,4]oxadiazol-5-yl]-azetidin-1-yl}-(2-methyl-5-m-tolyl-thiazol-4-yl)-methanone] were 436 nM and 280 nM.
On to `Cc1ccc(-c2ccccc2)c(C(=O)N2CC[C@H]2c2nc(-c3cccc(Cl)c3C)no2)c1` [Example 57, {(S)-2-[3-(3-Chloro-2-methyl-phenyl)-[1,2,4]oxadiazol-5-yl]-azetidin-1-yl}-(4-methyl-biphenyl-2-yl)-methanone], for which the values for the IC50 at human orexin-1 receptor and at human orexin-2 receptor were 89 nM and 4 nM, respectively.
`Cc1nc(C(=O)N2CC[C@H]2c2nc(-c3cccc(Cl)c3C)no2)c(-c2ccccc2)s1` [Example 58, {(S)-2-[3-(3-Chloro-2-methyl-phenyl)-[1,2,4]oxadiazol-5-yl]-azetidin-1-yl}-(2-methyl-5-phenyl-thiazol-4-yl)-methanone]: the IC50 on human orexin-1 receptor stood at 1030 nM; on human orexin-2 receptor it was 133 nM.
Turning to `Cc1c(Cl)cccc1-c1noc([C@@H]2CCN2C(=O)c2nc(N(C)C)sc2-c2ccccc2)n1` [Example 59, {(S)-2-[3-(3-Chloro-2-methyl-phenyl)-[1,2,4]oxadiazol-5-yl]-azetidin-1-yl}-(2-dimethylamino-5-phenyl-thiazol-4-yl)-methanone], the IC50 at human orexin-1 receptor came to 43 nM; on human orexin-2 receptor, 7 nM.
As to `Cc1c(Cl)cccc1-c1noc([C@@H]2CCN2C(=O)c2ncsc2-c2ccccc2)n1` [Example 60, {(S)-2-[3-(3-Chloro-2-methyl-phenyl)-[1,2,4]oxadiazol-5-yl]-azetidin-1-yl}-(5-phenyl-thiazol-4-yl)-methanone], the IC50 was 1200 nM at human orexin-1 receptor and 500 nM at human orexin-2 receptor.
Consider `Cc1c(Cl)cccc1-c1noc([C@@H]2CCN2C(=O)c2ncsc2-c2cccc(Cl)c2)n1` [Example 61, {(S)-2-[3-(3-Chloro-2-methyl-phenyl)-[1,2,4]oxadiazol-5-yl]-azetidin-1-yl}-[5-(3-chloro-phenyl)-thiazol-4-yl]-methanone], for which the IC50 is 993 nM at human orexin-1 receptor and 367 nM at human orexin-2 receptor.
Taken in the same sequence, the figures for `Cc1ccc(-c2sc(C)nc2C(=O)N2CC[C@H]2c2nc(-c3cccc(Cl)c3C)no2)cc1` [Example 62, {(S)-2-[3-(3-Chloro-2-methyl-phenyl)-[1,2,4]oxadiazol-5-yl]-azetidin-1-yl}-(2-methyl-5-p-tolyl-thiazol-4-yl)-methanone] were 562 nM and 170 nM.
As to `Cc1nc(C(=O)N2CC[C@H]2c2nc(-c3cccc(Cl)c3C)no2)c(-c2ccccc2C)s1` [Example 63, {(S)-2-[3-(3-Chloro-2-methyl-phenyl)-[1,2,4]oxadiazol-5-yl]-azetidin-1-yl}-(2-methyl-5-o-tolyl-thiazol-4-yl)-methanone], the results for the IC50 on human orexin-1 receptor and at human orexin-2 receptor were 1130 nM and 448 nM, respectively.
`Cc1cccc(-n2nccn2)c1C(=O)N1CC[C@H]1c1nc(-c2cccc(Cl)c2C)no1` [Example 64, {(S)-2-[3-(3-Chloro-2-methyl-phenyl)-[1,2,4]oxadiazol-5-yl]-azetidin-1-yl}-(2-methyl-6-[1,2,3]triazol-2-yl-phenyl)-methanone]: the results for the IC50 on human orexin-1 receptor and on human orexin-2 receptor were 812 nM and 69 nM, respectively.
